From patent US5051417A, “Indolythiadiazines for treating heart failure” (Les Laboratoires Beecham S.A., priority 1988, dated 1991)

Experiments:
[1] = target: T1, canine cardiac PDE, CGI (Canis lupus familiaris, UniProt A0A8I3NYE0); test: Canine cardiac PDE inhibition, CGI; type: biochemical; conditions: n in table
T1 construct: CANINE CARDIAC PDE; from tissue; host or cells: dog heart
T1 sequence (A0A8I3NYE0 1-1135): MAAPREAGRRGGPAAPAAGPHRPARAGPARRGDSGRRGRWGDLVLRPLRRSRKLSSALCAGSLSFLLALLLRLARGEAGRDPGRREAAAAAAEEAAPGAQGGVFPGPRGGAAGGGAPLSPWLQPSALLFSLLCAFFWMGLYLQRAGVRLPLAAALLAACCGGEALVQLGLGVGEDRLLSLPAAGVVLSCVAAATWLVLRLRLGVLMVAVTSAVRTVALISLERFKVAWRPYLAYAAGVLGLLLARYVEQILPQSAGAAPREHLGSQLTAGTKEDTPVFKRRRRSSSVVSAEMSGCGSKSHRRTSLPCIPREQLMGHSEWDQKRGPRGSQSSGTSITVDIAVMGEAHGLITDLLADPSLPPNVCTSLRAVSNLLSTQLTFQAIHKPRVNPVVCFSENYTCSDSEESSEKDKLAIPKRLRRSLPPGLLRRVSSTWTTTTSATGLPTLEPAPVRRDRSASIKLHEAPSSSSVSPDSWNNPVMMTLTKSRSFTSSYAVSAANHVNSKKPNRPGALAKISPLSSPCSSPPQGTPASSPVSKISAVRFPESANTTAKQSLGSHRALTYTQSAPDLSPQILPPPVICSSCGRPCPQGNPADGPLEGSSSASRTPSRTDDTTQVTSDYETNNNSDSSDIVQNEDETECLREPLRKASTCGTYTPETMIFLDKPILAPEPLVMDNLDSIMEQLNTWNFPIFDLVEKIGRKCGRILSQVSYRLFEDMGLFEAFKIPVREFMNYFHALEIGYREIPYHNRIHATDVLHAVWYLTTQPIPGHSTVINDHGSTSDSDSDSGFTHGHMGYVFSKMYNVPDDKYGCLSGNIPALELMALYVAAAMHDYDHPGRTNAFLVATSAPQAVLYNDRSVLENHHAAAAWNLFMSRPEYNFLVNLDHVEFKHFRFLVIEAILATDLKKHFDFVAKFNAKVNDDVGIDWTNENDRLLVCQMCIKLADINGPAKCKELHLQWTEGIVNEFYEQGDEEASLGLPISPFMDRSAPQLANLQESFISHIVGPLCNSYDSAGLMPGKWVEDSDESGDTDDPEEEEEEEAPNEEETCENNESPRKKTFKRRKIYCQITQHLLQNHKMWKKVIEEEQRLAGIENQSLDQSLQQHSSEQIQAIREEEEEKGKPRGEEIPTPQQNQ

[2] = test system: canine cardiac PDE, CAM; test: Canine cardiac PDE inhibition, CAM; type: biochemical; conditions: n in table
[3] = test system: canine cardiac myofibrillar Ca++-dependent Mg++-ATPase; test: Measurement of myofibrillar Ca++-dependent Mg++-ATPase activity on canine cardiac myofibrils; type: biochemical; conditions: 30 μM, pH 7.0, 21° C.; for max (percent change of maximal ATPase activity): pCa=5.47
Description: 1. Measurement of myofibrillar Ca++-dependent Mq++-ATPase activity The effect on myofibrillar Ca++sensitivity and on maximal activity of myofibrillar Ca++-dependent Mg++-ATPase was determined on canine cardiac myofibrils. (a) Contractile protein preparation Cardiac myofibrils free of membrane contaminants were prepared from left ventricular tissue of dog hearts using a modification of the method described by SOLARO et al, Biochem. Biophys. Acta, 245, 259-262, (1971). Before centrifugation, the heart homogenate was filtered through gauze. After Triton X-100 treatments, the myofibrillar fraction was washed once by resuspension and centrifugation in 10 volumes of 1 mM EGTA, […], 30 mM imidazole, 2 mM MgCl2, pH 7.0. The pellet was then washed three times in 10 volumes of the same buffer without EGTA. Before the last centrifugation, the suspension of myofibrils was filtered through a stainless steel sieve with 0.25 mm meshes. Myofibrils were kept in pellet overnight. Before use, the pellet was suspended in a small amount of buffer, the protein concentration was determined by the method of BRADFORD M., Anal. Biochem., 1976, 72, 248 and adjusted in order to have a concentration between 6 and 7 mg/ml. (b) Myofibrillar ATPase activity Ca++-dependent myfibrillar ATPase activity was determined at 21° C., pH 7.0, by measuring the rate of release of inorganic phosphate. All assays were performed within 24hrs. of final purification, using the method described by SOLARO and […]., 51. 290-4,(1982). Reaction mixtures (4 ml) containing 0.6-0.7 mg/ml myofibrillar protein, 80mM KCl, 20 mM imidazole, 3 mM MgCl2, 1 mM EGTA, the desired amount of CaCl2, and the indicated concentration of drug or appropriate vehicle were preincubated for 6 min. prior to assay. The amount of CaCl2 was varied between 0 and 0.9 mM and the pCa (-log free Ca++) computed using 2.514×10^6 M^-1 as the apparent affinity of Ca++for EGTA at pH 7.0. Reactions were initiated by the addition of Na2 ATP to final concentration of 2 mM. After an incubation period of 12 min., reactions were quenched by the addition of an equal volume of ice-cold 10% trichloroacetic acid. The protein was pelleted by centrifugation (2000 g, 15 min.) and Pi was assayed in the supernatant fraction using a modification of the method described by LANZETTA et al, Anal. Biochem., 100, 95-97, (1979). The following solutions were prepared: (1) 3.7% ammonium heptamolybdate in 0.12 N H2 SO4 (2) 0.074% malachite green oxalate in 1% polyvinylic alcohol. The colour reagent was prepared by mixing an equal volume of solution (1) and (2) 15 min. before the assay. For the assay, 1,700 μl of 1% H2 SO4 and 1 ml of colour reagent were added to 100 μl of sample. Colour development occurred at room temperature for 30 min. and was quenched by the addition of 200 μl of 1M tri-potassium citrate. The absorbance was measured at 620 millimicrons. The effect of each compound, tested at the indicated concentration, on the relation between pCa and percent activation was determined taking 100% for the maximum ATPase activity obrained with vehicle alone. The effect on Ca++sensitivity was quantified by measuring the shift of the pCa giving 50% of the maximal control ATPase activity. The effect on maximal ATPase activity was expressed as the percent change of ATPase activity for pCa=5.47. Mean effects on myofibrillar ATPase activity were obtained from 1 to 5 preparations, (compounds tested at 2×10^-4 M).

[4] = test system: anaesthetised dog; test: Cardiotonic activity in the dog (haemodynamics); type: in vivo, dog (male Beagle); conditions: i.v.

SMILES	IC50 [1] [nM]	IC50 [2] [nM]	max (percent change of maximal ATPase activity) [3] [%]	pCa (shift of the pCa giving 50% of the maximal control ATPase activity; Ca++ sensitivity) [3]	further results
CC1SC(=O)NN=C1c1ccc2c(c1)C(=C(C#N)C#N)C(=O)N2 (stereo not drawn) [Example 9, [5-(3,6-Dihydro-6-methyl-2-oxo-2H-1,3,4-thiadiazin-5-yl) -1,2-dihydro-2-oxo-3H-indol-3-ylidene]-propane-dinitrile]	2100	31000	-20 ± 3	+0.05 ± 0.07	
CC1SC(=O)NN=C1c1ccc2c(c1)C(=NNC1=NCCN1)C(=O)N2 (stereo not drawn) [Example 13]	14000		2 ± 2	+0.07 ± 0.02	
CC1SC(=O)NN=C1c1ccc2c(c1)C(=NN)C(=O)N2 (stereo not drawn) [Example 7, 5-(3,6-Dihydro-6-methyl-2-oxo-2H-1,3,4-thiadiazin-5-yl)-1H -indole-2,3-dione 3-hydrazone]	2300	42000	-3 ± 5	+0.17 ± 0.02	
CC1SC(=O)NN=C1c1ccc2c(c1)C(=NNc1ccccc1C(F)(F)F)C(=O)N2 (stereo not drawn) [Example 31, 5-(3,6-Dihydro-6-methyl-2-oxo-2H-1,3,4-thiadiazin-5-yl) -1H-indole-2,3-dione 3-[(2-trifluoromethyl)phenylhydrazone]]			26 ± 7	+0.43 ± 0.04	AoBF ([4]; 0.01 mg/kg): +11 ± 5%; AoBP ([4]; 0.01 mg/kg): -8 ± 1%; H.R. ([4]; 0.01 mg/kg): +8 ± 2%; dP/dt Max ([4]; 0.01 mg/kg): +9 ± 3%; AoBF ([4]; 0.03 mg/kg): +19 ± 8%; AoBP ([4]; 0.03 mg/kg): -15 ± 1%; H.R. ([4]; 0.03 mg/kg): +30 ± 4%; dP/dt Max ([4]; 0.03 mg/kg): +44 ± 13%; AoBF ([4]; 0.1 mg/kg): +13 ± 6%; AoBP ([4]; 0.1 mg/kg): -23 ± 2%; H.R. ([4]; 0.1 mg/kg): +39 ± 6%; dP/dt Max ([4]; 0.1 mg/kg): +93 ± 13%
CC1SC(=O)NN=C1c1ccc2c(c1)C(=NNC(N)=S)C(=O)N2 (stereo not drawn) [Example 4, 2-[2,3-Dihydro-5-(3,6-dihydro-6-methyl-2-oxo-2H-1,3,4-thiadiazin-5-yl)-2-oxo-1H-indol-3-ylidene]-hydrazine carbothioamide]	440	> 300000			
CC1SC(=O)NN=C1c1ccc2c(c1)C(=NNC(=N)N)C(=O)N2 (stereo not drawn) [Example 12, 5-(3,6-Dihydro-6-methyl-2-oxo-2H-1,3,4-thiadiazin-5-yl) -1H-indole-2,3-dione 3-[2-(aminomethanimino)hydrazone]]	1800		-1 ± 2	+0.08 ± 0.02	
CC1SC(=O)NN=C1c1ccc2c(c1)C(=Cc1ccncc1)C(=O)N2 (stereo not drawn) [Example 18]	1900	4000	-28 ± 4	+0.04 ± 0.08	

Further lines, with some results ahead:

IC50 [1] [nM]	IC50 [2] [nM]	max (percent change of maximal ATPase activity) [3] [%]	pCa (shift of the pCa giving 50% of the maximal control ATPase activity; Ca++ sensitivity) [3]	SMILES	further results
1200	> 300000	-2 ± 6	+0.38 ± 0.06	CC1SC(=O)NN=C1c1ccc2c(c1)C(=Nc1ccccc1)C(=O)N2 (stereo not drawn) [Example 6, 1,3-6-Dihydro-5-(3,6-dihydro-6-methyl-2-oxo-2H-1,3,4-thiadiazin-5-yl)-3-phenylimino-2H-indol-2-one]	
680	> 300000	8 ± 2	+0.36 ± 0.05	CC1SC(=O)NN=C1c1ccc2c(c1)C(=NOc1ccccc1)C(=O)N2 (stereo not drawn) [Example 11, 1,3,-Dihydro-5-(3,6-dihydro-6-methyl-2-oxo-2H-1,3,4-thiadiazin-5-yl)-3-phenoxyimino-2H-indol-2-one]	
350	20000	-13 ± 3	+0.43 ± 0.07	CC1SC(=O)NN=C1c1ccc2c(c1)C(=Cc1ccccc1)C(=O)N2 (stereo not drawn) [Example 10, 1,3-Dihydro-5-(3,6-dihydro-6-methyl-2-oxo-2H-1,3,4-thiadiazin-5-yl)-3-phenylmethylene-2H-indol-2-one]	
620	5600	0 ± 3	+0.12 ± 0.02	CC1SC(=O)NN=C1c1ccc2c(c1)C(=Nc1ccc(N(C)C)cc1)C(=O)N2 (stereo not drawn) [Example 14, 1,3-Dihydro-5-(3,6-dihydro-6-methyl-2-oxo-2H-1,3,4-thiadiazin-5-yl)-3-(4-dimethylaminophenylimino)-2H -indol-2-one]	
		1 ± 4	+0.17 ± 0.03	CC1SC(=O)NN=C1c1ccc2c(c1)C(=Cc1ccccc1[N+](=O)[O-])C(=O)N2 (stereo not drawn) [Example 16, 1,3-Dihydro-5-(3,6-dihydro-6-methyl-2-oxo-2H-1,3,4-thiadiazin-5-yl)-3-(2-nitrophenylmethylene)-2H-indol-2-one]	
		-2 ± 5	+0.49 ± 0.06	CC1SC(=O)NN=C1c1ccc2c(c1)C(=NNc1ccc(C(C)(C)C)cc1)C(=O)N2 (stereo not drawn) [Example 24, 5-(3,6-Dihydro-6-methyl-2-oxo-2H-1,3,4-thiadiazin-5-yl) -1H-indole-2,3-dione 3-[4-(1,1-dimethylethyl)phenylhydrazone]]	
